Data reported in patent US4148795A, “Dithiocarbamate ester bactericides and fungicides” (American Cyanamid Company, priority 1976, dated 1979).
Like-named read-outs stand apart in the source and are kept apart here.

Assays:
Aspergillus niger [1] = assay: Spore germination inhibition; type: cell-based; conditions: 24 hours
Outline: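 Test compound is suspended in water at 100, 10 or 1 ppm. and dispensed into one dram "opticlear" vials. Each vial receives one drop of a spore suspension taken from seven-day Aspergillus niger cultures grown on potato-dextrose agar. Capped vials rotate on a tumbler for 24 hours, then are inspected for inhibition of mycelial growth.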

[2] = system: Stemphylium sarcinaeforme; assay: Spore germination inhibition; type: cell-based; conditions: Stemphylium sarciniforme
Outline: (§1)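 Test compounds were suspended in water at 100, 10 or 1 ppm and inoculated with spore suspensions from 7-day (A. niger) or 14-day potato-dextrose agar cultures. Vials were tumbled for 24 hours and then examined for inhibition of mycelial growth.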

Monilinia fructicola [3] = assay: Spore germination inhibition; type: cell-based
Outline: as §1

Fusarium lycopersici = assay: Agar dilution plate; type: cell-based; conditions: Fl; 100 ppm, 72 hours at 23° C
Outline: (§2)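 Step one: blend compound into Sabouraud's dextrose agar to about 100 ppm and let it solidify. Step two: inoculate and incubate around 72 hours at 23° C. Step three: observe growth and record a rating of 0 (no control) or 5 (100% effectiveness), repeating the test twice.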

Rhizoctonia solani = assay: Agar dilution plate; type: cell-based; conditions: Rs; 100 ppm, 72 hours at 23° C
Outline: as §2

Aspergillus niger [4] = assay: Agar dilution plate; type: cell-based; conditions: An; 100 ppm, 72 hours at 23° C
Outline: as §2

Monilinia fructicola [5] = assay: Agar dilution plate; type: cell-based; conditions: Mf; 100 ppm, 72 hours at 23° C
Outline: as §2

Pythium de Baryanum = assay: Agar dilution plate; type: cell-based; conditions: Pd; 100 ppm, 72 hours at 23° C
Outline: as §2

Xanthomonas vesicatoria = type: cell-based; conditions: 100 ppm; subcultures 72 hours at 37° C; also: key: 0: No Effect; 9: Kill of Bacteria; 5: Stasis, but not Kill of all Bacteria
Piricularia oryzae = type: in vivo; design: scale not given here; conditions: Rice Blast, five days
Venturia inaequalis [6] = assay: Apple scab on field-grown trees; type: in vivo; conditions: 50% wettable powder
Source text: Apple Scab (Venturia inaequalis)
(§3) The compound of Example 13 was applied as a foliar spray for ten applications at weekly intervals from May 1 through July 2, and then two more sprays on a two-week schedule ending on July 31.
(§4) The active compound was applied as a 50% wettable powder having the following composition:
50% Active Compound (Example 13 )
(§5) Rates of 50% wettable applied were:
(§6) 2 pounds/100 gallons of water
(§7) 1 pound/100 gallons of water
(§8) Three tree replicates of each rate
(§9) Variety: Red Delicious were used.

[7] = system: Collectotrichum lagenarium; assay: Agar dilution plate; type: cell-based; conditions: Cl; 100 ppm, 72 hours at 23° C
Outline: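 Compounds were incorporated at about 100 ppm in Sabouraud's dextrose agar, inoculated, and incubated about 72 h at 23 °C. Growth was scored 0 (no control) or 5 (100% effectiveness), and the test was repeated twice.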

[8] = system: Stemphylium sarcinaeforme; assay: Agar dilution plate; type: cell-based; conditions: Ss; 100 ppm, 72 hours at 23° C
Outline: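 Compound incorporated into Sabouraud's dextrose agar at about 100 ppm, inoculated with Stemphylium sarcinaeforme and incubated about 72 hours at 23 °C. Growth scored 0 (no control) or 5 (100% effectiveness), test run in repeat.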

[9] = system: Red Delicious apple trees; assay: Phytotoxicity on field-grown apple trees; type: in vivo; conditions: 50% wettable powder, 2 and 1 pounds/100 gallons of water
Source text: as §3, §4, §5, §6, §7, §8, §9

Pseudomonas solaracaerum = type: cell-based; conditions: 100 ppm, 72 hours at 23° C; also: key: 0: no control; 5: 100% effectiveness of the test compound against the specified organism
Phytophthora infestans = type: in vivo; design: scale not given here; conditions: Tomato Late Blight, five days
Venturia inaequalis [10] = conditions: in vivo
Aerobacter aerogenes = type: cell-based; conditions: 100 ppm; subcultures 72 hours at 37° C; also: key: 0: No Effect; 9: Kill of Bacteria; 5: Stasis, but not Kill of all Bacteria
[11] = system: Colletotrichum lagenarium; conditions: in vivo; also: key: 5: clean, no disease; 4: trace of disease; 3: slight disease; 2: moderate disease; 1: severe disease; 0: like controls
Verticillium albo-atrum = assay: Agar dilution plate; type: cell-based; conditions: Va; 100 ppm, 72 hours at 23° C
Outline: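 Compounds incorporated at about 100 ppm into Sabouraud's dextrose agar, then inoculated with the fungus and incubated about 72 hours at 23° C. Growth scored as 0 (no control) or 5 (100% effectiveness); test repeated twice.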

Staphylococcus aureus = type: cell-based; conditions: 100 ppm; subcultures 72 hours at 37° C; also: key: 0: No Effect; 9: Kill of Bacteria; 5: Stasis, but not Kill of all Bacteria
[12] = 24 h, read-out: % Inhibition of Spore Germination

SMILES: CN(C)C(=S)SC(C[N+](=O)[O-])c1ccccc1 (stereo not drawn) [Example 13, α-(Nitromethyl)benzyl Dimethyldithiocarbamate]
- inhibition at 1 ppm (Aspergillus niger [1]; 1 ppm): 100%
- inhibition at 10 ppm (Aspergillus niger [1]; 10 ppm): 100%
- inhibition at 100 ppm (Aspergillus niger [1]; 100 ppm): 100%
- inhibition at 100 ppm [2, 12]: 100%
- inhibition at 1 ppm ([2]; 1 ppm, 24 hours): 100%
- inhibition at 10 ppm ([2]; 10 ppm, 24 hours): 100%
- inhibition at 1 ppm (Monilinia fructicola [3]; 1 ppm, 24 hours): 100%
- inhibition at 10 ppm (Monilinia fructicola [3]; 10 ppm, 24 hours): 100%
- inhibition at 100 ppm (Monilinia fructicola [3]; [12]): 100%
- Agar Dilution Plate rating (Fusarium lycopersici): 5 (100% effectiveness of the test compound against the specified organism)
- Agar Dilution Plate rating (Rhizoctonia solani): 0
- Agar Dilution Plate rating (Aspergillus niger [4]): 0
- Agar Dilution Plate rating (Monilinia fructicola [5]): 5 (100% effectiveness of the test compound against the specified organism)
- Agar Dilution Plate rating (Pythium de Baryanum): 5 (100% effectiveness of the test compound against the specified organism)
- Antibacterial Activity rating (Xanthomonas vesicatoria): 5
- disease control index (Piricularia oryzae; 150 ppm): 5
- disease control index (Piricularia oryzae; 300 ppm): 5
- disease control index (Piricularia oryzae; 600 ppm): 5
- disease control index (Piricularia oryzae; 1200 ppm): 5
- scab on trees (Venturia inaequalis [6]; 1 pound/100 gallons of water, end of season): trace of scab
- scab on trees (Venturia inaequalis [6]; 2 pounds/100 gallons of water, all season): free of scab all season long
- Agar Dilution Plate rating [7]: 5 (100% effectiveness of the test compound against the specified organism)
- Agar Dilution Plate rating [8]: 5 (100% effectiveness of the test compound against the specified organism)
- phytotoxicity [9]: No phytotoxicity
- Agar Dilution Plate rating (Pseudomonas solaracaerum): 0
- disease control index (Phytophthora infestans; 150 ppm): 5
- disease control index (Phytophthora infestans; 300 ppm): 5
- disease control index (Phytophthora infestans; 600 ppm): 5
- disease control index (Phytophthora infestans; 1200 ppm): 5
- disease control index (Venturia inaequalis [10]): 5
- Antibacterial Activity rating (Aerobacter aerogenes): 5
- disease control index [11]: 5
- Agar Dilution Plate rating (Verticillium albo-atrum): 5 (100% effectiveness of the test compound against the specified organism)
- Antibacterial Activity rating (Staphylococcus aureus): 5
